{"source": "patent US10759816B2", "about": "“Heterocyclic compounds as RSV inhibitors” (Enanta Pharmaceuticals, Inc., priority 2016, dated 2020)", "data": [{"test_system": "genotype A, \"Long\" strain RSV", "experiment": "RSV-A in vitro cytoprotection assay in HEp-2 cells (ATPlite readout of cell viability)", "assay_type": "cell-based, Human respiratory syncytial virus", "conditions": "human respiratory syncytial virus, HEp-2, HEp-2 cells, genotype A “Long” strain RSV, cytoprotection; read-out: Human RSV-A (“Long” strain) EC50", "summary_of_the_method": "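Cytoprotection measured as ATP-based luminescence (ATPlite) after 4-day incubation of RSV Long-infected HEp-2 cells (8,000/well, 10% FBS DMEM) with 2-fold serial compound dilutions in duplicate. Identically treated virus-free plate gives cytotoxicity; EC50 calculated from viability.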", "units": {"EC50": "µM"}, "values": [{"smiles": "Cc1cccc(F)c1NC(=O)c1cc2c(s1)-c1ccccc1N(C(=O)c1cccc(N(C[C@H]3CCCO3)C3CCC3)n1)CC2", "note": "[Example 481]", "EC50": "< 0.4"}, {"smiles": "COCCN(C)c1cccc(C(=O)N2CCc3cc(C(=O)NC4CC4)sc3-c3ccccc32)n1", "note": "[Example 34]", "EC50": "0.4 to 0.8"}, {"smiles": "Cc1cccc(F)c1NC(=O)c1cc2c(s1)-c1ccccc1N(C(=O)c1cccc(N3C(=O)OC[C@@H]3C(C)C)n1)CC2", "note": "[Example 475]", "EC50": "< 0.4"}, {"smiles": "O=C(NC1CC1)c1cc2c(s1)-c1ccccc1N(C(=O)c1ccnc(N3CCCOCC3)n1)CC2", "note": "[Example 52]", "EC50": "0.4 to 0.8"}, {"smiles": "Cc1cccc(F)c1NC(=O)c1cc2c(s1)-c1ccccc1N(C(=O)c1cccc(-c3c[nH]c4ccc(Cl)cc34)n1)CC2", "note": "[Example 249]", "EC50": "< 0.4"}, {"smiles": "Cc1cccnc1NC(=O)c1cc2c(s1)-c1ccccc1N(C(=O)c1cccc(N3CCOc4ccccc4C3)n1)CC2", "note": "[Example 301]", "EC50": "< 0.4"}, {"smiles": "O=C(NC1CC1)c1cc2c(s1)-c1ccccc1N(C(=O)c1cccc(-c3ccnc(N4CCCOCC4)c3)n1)CC2", "note": "[Example 86]", "EC50": "< 0.4"}, {"smiles": "O=C(NC1CC1)c1cc2c(s1)-c1ccccc1N(C(=O)c1cccc(N3CCC4(CC3)CC4)n1)CC2", "note": "[Example 25]", "EC50": "0.4 to 0.8"}, {"smiles": "Cc1cccc(F)c1NC(=O)c1cc2c(s1)-c1ccccc1N(C(=O)c1cccc(N3CCC[C@H](N)C3=O)n1)CC2", "note": "[Example 478]", "EC50": "> 0.8"}, {"smiles": "Cc1cccc(F)c1NC(=O)c1cc2c(s1)-c1ccccc1N(C(=O)c1cccc(-c3cnn(S(C)(=O)=O)c3C3CC3)n1)CC2", "note": "[Example 216]", "EC50": "< 0.4"}, {"smiles": "COc1ccccc1CN(c1cccc(C(=O)N2CCc3cc(C(=O)Nc4c(C)cccc4F)sc3-c3ccccc32)n1)C1CC1", "note": "[Example 342]", "EC50": "0.4 to 0.8"}, {"smiles": "Cc1cccc(F)c1NC(=O)c1cc2c(s1)-c1ccccc1N(C(=O)c1cccc(-n3nnc4ncccc43)n1)CC2", "note": "[Example 123]", "EC50": "> 0.8"}, {"smiles": "Cc1cccc(F)c1NC(=O)c1cc2c(s1)-c1ccccc1N(C(=O)c1cccc(N3CCC[C@@H]3C(C)C)n1)CC2", "note": "[Example 482]", "EC50": "> 0.8"}, {"smiles": "Cc1ccc2[nH]cc(-c3cccc(C(=O)N4CCc5cc(C(=O)Nc6c(C)cccc6F)sc5-c5ccccc54)n3)c2c1", "note": "[Example 255]", "EC50": "0.4 to 0.8"}, {"smiles": "COc1cccc(Nc2cccc(C(=O)N3CCc4cc(C(=O)NC5CC5)sc4-c4ccccc43)n2)n1", "note": "[Example 409]", "EC50": "> 0.8"}, {"smiles": "O=C(Nc1cc2c(s1)-c1ccccc1N(C(=O)c1cccc(N3CCOc4ccccc4C3)n1)CC2)C1CC1", "note": "[Example 314]", "EC50": "> 0.8"}, {"smiles": "Cc1cncc(-c2cccc(C(=O)N3CCc4cc(C(=O)NC5CC5)sc4-c4ccccc43)n2)c1", "note": "[Example 155]", "EC50": "> 0.8"}, {"smiles": "O=C(NC1CC1)c1cc2c(s1)-c1ccccc1N(C(=O)c1cccc(N3CCOCC4(CCOCC4)C3)n1)CC2", "note": "[Example 284]", "EC50": "< 0.4"}, {"smiles": "NNC(=O)c1ccc2c(c1)CCN(C(=O)c1cccc(N3CCOc4ccccc4C3)n1)c1ccccc1-2", "note": "[Example 398]", "EC50": "> 0.8"}, {"smiles": "COc1cc(-c2cccc(C(=O)N3CCc4cc(C(=O)NC5CC5)sc4-c4ccccc43)n2)ccn1", "note": "[Example 72]", "EC50": "0.4 to 0.8"}, {"smiles": "Cc1cccc(F)c1NC(=O)c1cc2c(s1)-c1ccccc1N(C(=O)c1cccc(-c3c(C)n[nH]c3C)n1)CC2", "note": "[Example 209]", "EC50": "< 0.4"}, {"smiles": "O=C(NC1CC1)c1cc2c(s1)-c1ccccc1N(C(=O)c1ccc(F)c(N3CCOCC3)n1)CC2", "note": "[Example 44]", "EC50": "0.4 to 0.8"}, {"smiles": "Cc1cccc(F)c1NC(=O)c1cc2c(s1)-c1ccccc1N(C(=O)c1cccc(-c3cnc(C(F)(F)F)n3C3CC3)n1)CC2", "note": "[Example 202]", "EC50": "< 0.4"}, {"smiles": "Cc1cccc(F)c1NC(=O)c1cc2c(s1)-c1ccccc1N(C(=O)c1cccc(-c3cncn3C3(C)CC3)n1)CC2", "note": "[Example 201]", "EC50": "> 0.8"}, {"smiles": "COC(=O)N[C@H]1C[C@H](C)N(c2cccc(C(=O)N3CCc4cc(C(=O)Nc5c(C)cccc5F)sc4-c4ccccc43)n2)C1", "note": "[Example 391]", "EC50": "< 0.4"}, {"smiles": "O=C(NC1CC1)c1cc2c(s1)-c1ccccc1N(C(=O)c1cccc(-c3ccnc(C4CC4)c3)n1)CC2", "note": "[Example 166]", "EC50": "> 0.8"}, {"smiles": "Cc1cccc(F)c1NS(=O)(=O)c1cc2c(s1)-c1ccccc1N(C(=O)c1cccc(N3CCCOCC3)n1)CC2", "note": "[Example 317]", "EC50": "> 0.8"}, {"smiles": "Cc1cccc(F)c1NC(=O)c1cc2c(s1)-c1ccccc1N(C(=O)c1cccc(N3CCCN(S(C)(=O)=O)CC3)n1)CC2", "note": "[Example 384]", "EC50": "< 0.4"}, {"smiles": "Cc1cccc(F)c1NC(=O)c1cc2c(s1)-c1ccccc1N(C(=O)c1cccc(N3CCOc4cccc(F)c4C3)n1)CC2", "note": "[Example 368]", "EC50": "< 0.4"}, {"smiles": "Cc1cccc(F)c1NC(=O)c1cc2c(s1)-c1ccccc1N(C(=O)c1cccc(-c3cn(S(=O)(=O)C4CC4)nc3C3CC3)n1)CC2", "note": "[Example 221]", "EC50": "< 0.4"}, {"smiles": "COc1ccc(-c2nc(C(=O)N3CCc4cc(C(=O)NC5CC5)sc4-c4ccccc43)ccc2C#N)cn1", "note": "[Example 70]", "EC50": "> 0.8"}, {"smiles": "Cc1cccc(F)c1NC(=O)c1cc2c(s1)-c1ccccc1N(C(=O)c1cccc(N3CCS(=O)(=O)c4ccccc4[C@H]3C)n1)CC2", "note": "[Example 433]", "EC50": "> 0.8"}, {"smiles": "Cc1cccc(F)c1NC(=O)c1cc2c(s1)-c1ccccc1N(C(=O)c1cccc(-c3cncn3C3CC3)n1)CC2", "note": "[Example 233]", "EC50": "< 0.4"}, {"smiles": "Cc1cccc(F)c1NC(=O)c1cc2c(s1)-c1ccccc1N(C(=O)c1cccc(-c3ccc4ccc(=O)[nH]c4c3)n1)CC2", "note": "[Example 191]", "EC50": "> 0.8"}, {"smiles": "Cc1cccc(F)c1NC(=O)c1cc2c(s1)-c1ccccc1N(C(=O)c1cccc(N(CCO)C3CC3)n1)CC2", "note": "[Example 326]", "EC50": "0.4 to 0.8"}, {"smiles": "CCOCCNc1cccc(C(=O)N2CCc3cc(C(=O)Nc4c(C)cccc4F)sc3-c3ccccc32)n1", "note": "[Example 330]", "EC50": "< 0.4"}, {"smiles": "COc1ccccc1CNc1cccc(C(=O)N2CCc3cc(C(=O)NC4CC4)sc3-c3ccccc32)n1", "note": "[Example 287]", "EC50": "> 0.8"}, {"smiles": "O=C(NCC1CC1)c1cc2c(s1)-c1ccccc1N(C(=O)c1cccc(N3CCCOCC3)n1)CC2", "note": "[Example 100]", "EC50": "< 0.4"}, {"smiles": "Cc1cccc(F)c1NC(=O)c1cc2c(s1)-c1ccccc1N(C(=O)c1cccc(N3CCS(=O)(=O)c4ccccc4[C@@H]3C)n1)CC2", "note": "[Example 434]", "EC50": "> 0.8"}, {"smiles": "Cc1cnc(N2CC3(COC3)C2)c(NC(=O)c2ccc(C(=O)N3CCc4cc(C(=O)Nc5c(C)cccc5F)sc4-c4ccccc43)cc2)c1", "note": "[Example 141]", "EC50": "> 0.8"}, {"smiles": "Cc1cccc(F)c1NC(=O)c1cc2c(s1)-c1ccccc1N(C(=O)c1cccc(-c3c[nH]nc3C(F)(F)F)n1)CC2", "note": "[Example 210]", "EC50": "< 0.4"}, {"smiles": "CC(=O)N1CCN(c2cccc(C(=O)N3CCc4cc(C(=O)NC5CC5)sc4-c4ccccc43)n2)CC1", "note": "[Example 20]", "EC50": "0.4 to 0.8"}, {"smiles": "COC(=O)n1cc(-c2cccc(C(=O)N3CCc4cc(C(=O)Nc5c(C)cccc5F)sc4-c4ccccc43)n2)c(C2CC2)n1", "note": "[Example 214]", "EC50": "< 0.4"}, {"smiles": "O=C(NC1CC1)c1cc2c(s1)-c1ccccc1N(C(=O)c1ccc(Cl)c(N3CCOCC3)n1)CC2", "note": "[Example 42]", "EC50": "0.4 to 0.8"}, {"smiles": "CN(C)C(=O)c1cc2c(s1)-c1ccccc1N(C(=O)c1cccc(N3CCCOCC3)n1)CC2", "note": "[Example 99]", "EC50": "> 0.8"}, {"smiles": "COc1ccc(-c2cccc(C(=O)N3CCc4cc(C(=O)NC5CC5)oc4-c4ccccc43)n2)cn1", "note": "[Example 107]", "EC50": "0.4 to 0.8"}, {"smiles": "COc1ccccc1CN(C)c1cccc(C(=O)N2CCc3cc(C(=O)NC4CC4)sc3-c3ccccc32)n1", "note": "[Example 289]", "EC50": "> 0.8"}, {"smiles": "Cc1cccc(F)c1NC(=O)c1cc2c(s1)-c1ccccc1N(C(=O)c1cccc(N3C[C@H](O)C[C@@H]3C)n1)CC2", "note": "[Example 480]", "EC50": "< 0.4"}]}]}
